Numbers after ± are expanded uncertainties.
Experiments:
[1] = 298.15 K, 101.33 kPa, Liquid
[2] = refractive index (Na D-line) (dimensionless); details: 293.15 K; 101.33 kPa; Liquid; Standard Abbe refractometry

Row | SMILES | mass density [1] [kg/m3] | refractive index [2] | mass density ([1]; Vibrating tube method) [kg/m3]
1 | Cc1ccccc1 [toluene] | 862.14 ± 0.94 | 1.4965 ± 0.0008 | –
2 | O=C1CCCCC1 [cyclohexanone] | – | 1.4507 ± 0.0007 | 941.7 ± 0.11

Results, then the molecule that gave them:

Row | mass density [1] [kg/m3] | refractive index [2] | mass density ([1]; Vibrating tube method) [kg/m3] | SMILES
3 | 901.51 ± 0.31 | 1.546 ± 0.0007 | – | C=Cc1ccccc1 [styrene]
4 | 873.56 ± 0.35 | 1.5009 ± 0.0007 | – | c1ccccc1 [benzene]
5 | – | 1.4962 ± 0.0008 | 862.44 ± 0.55 | CCc1ccccc1 [ethylbenzene]

From the NIST ThermoML archive (doi:10.1016/j.jct.2004.07.010)
